Data on 6 compounds can be found in US12117442B2, “Methods of screening compounds” (Depixus SAS, priority 2022, dated 2024).

By Kd is commonly meant the equilibrium constant for the complex coming apart. In general, Ki refers to a measure of affinity in units of concentration, obtained from inhibition or displacement.

One test has as its system pre-miR-21. The test is described as follows: Dicer binding to pre-miR-21 (unfolding force). To be noted: 20 nM full-length Dicer without magnesium. As to the method: (§1) Pre-miR-21 and pre-miR-21-bp mutants are used as substrates to measure the effect of Dicer on the folding kinetics. Dicer is a double-strand-specific ribonuclease that binds the pre-miRNAs and cleaves them to generate mature miRNAs. Adding 20 nM of full-length Dicer without magnesium causes the binding of the protein to the structure without further processing of the structure. […] Therefore, the platform described herein is useful for detecting interaction between an RNA scaffold and an RNA binding protein.

Another test deals with pre-miR-21-bp mutant. In words: Dicer binding to pre-miR-21-bp mutant. The settings on record: 20 nM full-length Dicer without magnesium; mutation abolishes bulge. As to the method: as §1
Test [1] relates to wild type (WT) Bsu preQ1 riboswitch. The test is described as follows: Step constant-force experiments on WT preQ1 riboswitch. In kind it is binding. From the text: In a Constant-Force Experiment, the nucleic acid molecules are subjected to the same force for a certain amount of time before it is increased in a stepwise manner. The equilibrium force is the point at which the molecule spends equal time in both folded and unfolded states. Ligand binding at this force can cause a change in the dynamics of folding and unfolding.
(§2) To study the molecular dynamics of the preQ1 riboswitch using the platform described herein, wild type (WT) Bsu riboswitch was attached to the flowcell as described in Example 1. A step constant-force experiments were then performed, where the molecule is kept at a constant force for a given amount of time before increasing the force in a stepwise manner from lower to higher forces (FIG. 3B). The z position of the bead was recorded and at forces closer to equilibrium, the molecule transitioned between the folded and unfolded state (FIG. 3B). The force was maintained constant for five minutes at the equilibrium force (where the molecule spends as much time in the unfolded versus folded state) and various concentrations of the preQ1 ligand were tested. The binding of the ligand to the structure (arrows shown in representative binding analysis curve of FIG. 3C) was monitored in real time and at the level of the single molecule. A binding which causes the structure to remain in the folded state for more than 3 seconds was recorded. The kon calculated by dividing the number of events observed when the ligand is bound to the RNA structure over the time of experiment at a given concentration of the ligand. The RNA is considered bound to a ligand (here preQ1 ligand) when it stays folded for longer than 3.3 seconds. By testing different concentrations, the kon of the molecule was measured (FIG. 3D). The koff is inverse of the length of time when the RNA structure is bound by a ligand. Accordingly, a duration, when the ligand left the RNA structure (star) as the RNA structure went back to rapid transition between folded and unfolded state, was observed. The duration of this folded state allows to measure the koff of the ligand (FIG. 3E). The kon is dependent on the ligand concentration whereas the koff is not. For each force, the raw data was fitted to two different states using Hidden Markov model (FIG. 3B), and the fraction of time for which each molecule is present at the folded state was calculated over the time at each force step. The fraction was plotted against the force for each step, and the equilibrium force (inflection point) was determined for each molecule when the molecule spent 50% of the time at each state (FIG. 3F). The half-width of the force can also be determined by calculating 1/e (e=Euler's number) on either side of the inflection point, which indicates the force range where the molecule is bistable and transitions from folded and unfolded state (FIG. 3F). The transition frequency was calculated for each of the force steps recorded and plotted again the normalized force, corresponding to the equilibrium force for each bead in control conditions (FIG. 3G).
For the subsequent experiments, 1 mM Mg^2+ was added in all buffers.
To study the effect of preQ1 ligand binding to the riboswitch, constant-force step experiments were performed with increasing concentration of preQ1 ligand (FIG. 3B).

Test [2] has as its target HIV-1 TAR. To be noted: known binder of HIV-1 TAR; cited from earlier work.
Test [3] relates to HIV-1 TAR. The test is described as follows: Ramp experiments (unfolding/refolding force) on HIV-TAR RNA. In kind it is binding. To be noted: for effect on unfolding force: adding increasing concentrations. An excerpt: In a ramp experiment, the nucleic acid (e.g., RNA) molecules are subjected to multiple cycles of slowly increasing and/or decreasing force, and the value at which the molecule unfolds or refolds can be determined from a sudden change in the bead's position. Upon binding, a ligand can cause a change in the unfolding or refolding force if it stabilizes or destabilizes the RNA structure.
A 59-nucleotide HIV-TAR RNA flanked by RNA/DNA duplexes was attached to a paramagnetic bead on one side and the flowcell on the other end.
To investigate whether the platform can distinguish between different KD, three additional small molecules were used that are known to bind to the HIV-1 TAR structure with varying binding affinities (FIG. 2C-2E). […] Above 100 μM of Kanamycin, there is a widening of the force distribution (FIG. 2D).

In test [4] the test system is preQ1 riboswitch U6C mutant. In words: Ramp analysis, U6C mutant preQ1 riboswitch. In kind it is binding, Bsu. The settings on record: no KD from fitting maximum density or high-force density. An excerpt:
(§3) The preQ1 riboswitch has several point substitutions that modify affinity to the preQ1 ligand (FIG. 4A).

Test [5] has as its system preQ1 riboswitch. The test is described as follows: Long constant-force experiments at 9.6 pN on preQ1 riboswitch. The format is binding, Bsu. As to the method: as §2, with “The koff is inverse of the length of time when the RNA structure is bound by a ligand. Accordingly, a duration, when the ligand left the RNA structure (star) as the RNA structure went back to rapid transition between folded and unfolded state, was observed. The duration of this folded state allows to measure the koff of the ligand (FIG. 3E). The kon is dependent on the ligand concentration whereas the koff is not.” left out, “The transition frequency was calculated for each of the force steps recorded and plotted again the normalized force, corresponding to the equilibrium force for each bead in control conditions (FIG. 3G).” left out

For test [6], the target named is preQ1 riboswitch. The settings on record: comparison result obtained by smFRET; cited from earlier work.
In test [7] the test system is preQ1 riboswitch U7C + C15U mutant. The settings on record: U7C + C15U versus wt; basis for selecting the mutant; cited from earlier work.
In test [8] the test system is preQ1 riboswitch A10G mutant. The test is described as follows: Ramp analysis, A10G mutant preQ1 riboswitch. In kind it is binding, Bsu.
Source text: as §3
With this mutant, the whole distribution was shifted towards higher forces, instead of having two different fractions (FIG. 4E). […] The constant-force step experiment also reflected the changes in the equilibrium force in micromolar range (FIG. 4F).

For test [9], the system named is preQ1 riboswitch U6C mutant. To be noted: U6C versus WT; basis for selecting the mutant; cited from earlier work.
The test system of test [10] is preQ1 riboswitch C15U mutant. The settings on record: C15U versus wt; basis for selecting the mutant; cited from earlier work.
For test [11], the target named is preQ1 riboswitch U7C + C15U mutant. The test is described as follows: Ramp analysis, U7C + C15U double mutant preQ1 riboswitch. The format is binding, Bsu. To be noted: fit of high-force fraction.
Source text: as §3
(§4) Having established a reference point, the four different mutants were used to study the effect on preQ1 binding (FIG. 4C-4G). […] The difference could be due to the Mg^2+ used. Nonetheless, the platform was able to distinguish a 3-fold differences in KD, which is less apparent in platforms like SPR or fluorescent titration.

The test system of test [12] is preQ1 riboswitch A10G mutant. To be noted: A10G versus wt; basis for selecting the mutant; cited from earlier work.
Another test addresses WT preQ1 riboswitch. In words: Ramp analysis, WT preQ1 riboswitch. To be noted: fit of high-force fraction. The format is binding, Bsu. How it is done: The WT preQ1 riboswitch was used as a reference (FIG. 4B). […] The peak around the reference force decreased while there was an increase in the proportion of cycles that have a higher unfolding force. The higher force cycles can represent the binding of the ligand and formation of the pseudoknot. The fraction of cycles that have an unfolding force greater than 95% confidence interval of each bead was calculated in control conditions (FIG. 4B). […] This is similar to the KD calculated in Example 2 from the constant force experiment at 9.6 pN.

In test [13] the target is preQ1 riboswitch C15U mutant. The test is described as follows: Ramp analysis, C15U mutant preQ1 riboswitch. To be noted: fit of high-force fraction. In kind it is binding, Bsu.
Source text: as §3, §4

Where [14] appears, read: fit of changes in unfolding force, ramp experiments, read-out: calculated KD.
Setting [15] is: 1 μM preQ1 ligand, lesser extent than 1 mM Mg^2+.
Where [16] appears, read: increasing concentrations of preQ1, 1 mM Mg^2+ in buffers.

Where two headings read alike, the source gives them in different places.

In the case of “Dicer: double-strand-specific ribonuclease that binds the pre-miRNAs and cleaves them to generate mature miRNAs”, in the test on pre-miR-21, the “effect of binding on unfolding force” value was “increase in the unfolding force”. Further, in the test on pre-miR-21-bp mutant, the binding to mutant entry is “does not occur”.

As to `[Mg+2]` [Mg^2+], in test [1] (1 mM Mg^2+ alone, no ligand), the “effect on transition frequency at equilibrium force” value is given as “transition frequency decreased” and the “effect on unfolding equilibrium force” value is “increased the unfolding equilibrium force”.

For the compound `CCN[C@@H]1C[C@H](N)[C@@H](O[C@H]2OC(CN)=CC[C@H]2N)[C@H](O)[C@H]1O[C@H]1OC[C@](C)(O)[C@H](NC)[C@H]1O` [Netilmicin], at HIV-1 TAR [2], the equilibrium dissociation constant (Kd) is 1.4 µM and the Ki was approximately 14 µM. In addition, the “effect on unfolding force” value in the test on HIV-1 TAR [3] is “increase in the unfolding force”. Moreover, the Kd on HIV-1 TAR [3] (setting [14]) was approximately 13.4 µM.

For the compound `NCc1c[nH]c2nc(N)[nH]c(=O)c12` [preQ1], in test [4], the ligand binding entry was “abolished the ligand binding”. Further, the “effect of ligand and cation together” value in test [1] (1 μM preQ1 ligand plus 1 mM Mg^2+) was “additive effect”. Also, the “effect on transition frequency” value in test [1] (setting [15]) was “decreased transition frequency”; in test [1] (setting [16]), “decreased the transition frequency”. The “effect on unfolding equilibrium force” value in [1] (setting [15]) is given as “increased the unfolding equilibrium force”. Besides, the dissociation constant Kd was 0.162 µM in test [1] (fit of equilibrium force at each concentration); 0.073 µM at preQ1 riboswitch [5] (calculated by Koff/Kon); 0.134 µM on preQ1 riboswitch [6]; 34.7 µM in [8] (A10G, fit of maximum unfolding force density for each bead); 0.0177 µM in test [11]; 0.0878 µM at WT preQ1 riboswitch. The compound further had a Kd in [13] of 0.00535 µM. In addition, the “effect on equilibrium force” value in test [1] (setting [16]) was “increased equilibrium force”. In the test on preQ1 riboswitch [5] (9.6 pN, fit of attachment rate), the Kon is given as 0.0015 ^−1 nM^−1. The Koff in the test with preQ1 riboswitch [5] (9.6 pN, one per mean time of ligand-bound event) stood at 0.11 s⁻¹. The “Effect of mutation on binding affinity” value in [7] is reported as “Greatly Increase versus wt”; in test [9], “Abolished versus WT”; in test [10], “Increase versus wt”; in test [12] it was “Decrease versus wt”. In addition, the “increase in KD compared with WT” value in test [8] (A10G versus WT) was approximately 400 fold.

As to `Cc1ccc2c(N)c(C(=O)Nc3cccc(C(F)(F)F)c3)sc2n1` [Compound 4, 3-Amino-6-methyl-N-(3-(trifluoromethyl)phenyl)thieno[2,3-b]pyridine-2-carboxamide], the dissociation constant Kd at HIV-1 TAR [2] was 2.4 µM; at HIV-1 TAR [3] (setting [14]), 2.99 µM. Further, in the test with HIV-1 TAR [3], the “effect on unfolding force” value was “decrease in the unfolding force”.

For `N=C(N)NCCC[C@H](N)C(N)=O` [argininamide], in the test on HIV-1 TAR [3] (10 mM), the “effect on unfolding and refolding force” value was “increased both the unfolding and refolding force”. In addition, the “effect on unfolding force” value in the test on HIV-1 TAR [3] is given as “increased the unfolding force”. In addition, the equilibrium dissociation constant (Kd) on HIV-1 TAR [3] (fit of normalized force at maximum unfolding distribution for each bead, read-out: KD) was 5430 µM.
